Key:
Assay in all cases: relative viability (nuclei count vs DMSO), 5 days (fraction); higher = more cells survive
[1] = compound: C1/C(=C\C2=CC=CS2)/C(=O)/C(=C/C3=CC=CS3)/C1 + COc1cccc2cc(-c3nc([C@H]4CC[C@H](C(=O)O)CC4)n4ncnc(N)c34)[nH]c12 [OSI-027] (partner 0.5 µM)
In short: (§1)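 A single step with final 0.05% Triton X-100, 1% formaldehyde and 1 ug/ml Hoechst fixed the cells and stained nuclei 5 days after treatment. Lung cancer cell lines in 1536-well plates had been treated by pin tool the day after seeding with one drug alone or a fixed anchor-drug dose plus five library-drug doses (not always all listed) in √10 steps, and nuclei were counted on 4× images. Relative viability is the ratio of nuclei in treated wells to nuclei in vehicle wells, taken as the median of duplicate plates.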

[2] = compound: C1/C(=C\C2=CC=CS2)/C(=O)/C(=C/C3=CC=CS3)/C1 + Nc1ncn([C@H]2C[C@H](O)[C@@H](CO)O2)c(=O)n1 [Decitabine] (partner 2 µM)
In short: as §1

[3] = compound: C1=CC(=CC=C1C2=CC(=C(S2)NC(=O)N)C(=O)N)F [TPCA-1] + Nc1ncn([C@H]2C[C@H](O)[C@@H](CO)O2)c(=O)n1 [Decitabine] (partner 2 µM)
In short: as §1

[4] = compound: C[C@]12O[C@H](C[C@]1(O)CO)n1c3ccccc3c3c4c(c5c6ccccc6n2c5c31)CNC4=O [Lestaurtinib] + COc1cc2c(Oc3ccc(NC(=O)C4(C(=O)Nc5ccc(F)cc5)CC4)cc3F)ccnc2cc1OCCCN1CCOCC1 [Foretinib] (partner 0.25 µM)
In short: as §1

Cell Line | relative viability ([1]; first compound 0.2 µM) | relative viability ([1]; first compound 0.6325 µM) | relative viability ([1]; first compound 2 µM) | relative viability ([1]; first compound 6.325 µM) | relative viability ([1]; first compound 20 µM) | relative viability ([2]; first compound 0.2 µM) | relative viability ([2]; first compound 0.6325 µM) | relative viability ([2]; first compound 2 µM) | relative viability ([2]; first compound 6.325 µM) | relative viability ([2]; first compound 20 µM) | relative viability ([3]; first compound 0.04 µM) | relative viability ([3]; first compound 0.1265 µM) | relative viability ([3]; first compound 0.4 µM) | relative viability ([3]; first compound 1.265 µM) | relative viability ([3]; first compound 4 µM) | relative viability ([4]; first compound 0.005 µM) | relative viability ([4]; first compound 0.01581 µM) | relative viability ([4]; first compound 0.05 µM) | relative viability ([4]; first compound 0.1581 µM) | relative viability ([4]; first compound 0.5 µM)
NCI-H2405 | 0.619 | 0.633 | 0.705 | 0.497 | 0.624 | 0.798 | 0.722 | 0.822 | 0.719 | 0.704 | 0.823 | 0.664 | 0.748 | 0.712 | 0.717 | 1.11 | 1.08 | 1.05 | 0.805 | 0.384
NCI-H3122 | 1.17 | 0.956 | 1 | 0.889 | 1.01 | 0.509 | 0.375 | 0.472 | 0.381 | 0.463 | 0.424 | 0.404 | 0.424 | 0.496 | 0.455 | 1.06 | 0.984 | 1.01 | 1.03 | 0.793
PC-3 [JPC-3] | 0.774 | 0.715 | 0.719 | 0.552 | 0.778 | – | 0.792 | 0.849 | 0.694 | 0.815 | 0.862 | 0.916 | 0.838 | 0.813 | 0.818 | 1.01 | 1.1 | 0.938 | 0.902 | 0.558
PC-14 | 0.916 | 0.854 | 0.805 | 0.749 | 0.766 | 0.224 | 0.242 | 0.233 | 0.2 | 0.216 | 0.265 | 0.24 | 0.231 | 0.255 | 0.323 | 0.963 | 1.09 | 0.619 | 0.517 | 0.687
RERF-LC-KJ | 0.528 | 0.659 | 0.71 | 0.539 | 0.545 | 0.816 | 0.767 | 0.728 | 0.619 | 0.463 | 0.715 | 0.598 | 0.656 | 0.612 | 0.548 | 0.914 | 1.04 | 0.762 | 0.749 | 0.816
SK-LU-1 | 0.36 | 0.388 | 0.398 | 0.315 | 0.396 | 0.6 | 0.627 | 0.749 | 0.478 | 0.665 | 0.72 | 0.563 | 0.627 | 0.493 | 0.372 | 0.763 | 0.707 | 0.4 | 0.38 | 0.205
SK-MES-1 | 0.598 | 0.689 | 0.627 | 0.55 | 0.616 | 0.408 | 0.424 | 0.409 | 0.335 | 0.348 | 0.39 | 0.348 | 0.37 | 0.342 | 0.321 | 0.906 | 0.866 | 0.599 | 0.33 | 0.334
SW 900 | 0.63 | 0.492 | 0.612 | 0.531 | 0.796 | 0.404 | 0.434 | 0.375 | 0.42 | 0.438 | – | – | 0.407 | 0.421 | 0.391 | 0.719 | 0.891 | 1.17 | 0.868 | 0.793
SW 1573 | 0.603 | 0.724 | 0.756 | 0.599 | 0.617 | 0.609 | 0.502 | 0.552 | 0.408 | 0.456 | 0.621 | 0.402 | 0.438 | 0.677 | 0.395 | 0.895 | 0.889 | 0.826 | 0.668 | 0.518

From the supplement of paper PMC10307832
